# Data reported in patent US8242152B2, “Use of 4-[(4-thiazolyl)phenoxy]alkoxy-benzamidine derivatives for the prophylaxis and treatment of osteoporosis” (Dong Wha Pharmaceutical Co., Ltd., priority 2001, dated 2012).
# Read-outs that look alike come from different tables or passages of the source.
# Key:
# osteoclast fusion [1] = assay: Osteoclast fusion assay with purified prefusion osteoclasts (Example 5); format: cell-based, mice; conditions: Mus musculus, Osteoclast, 18 hours, read-out: Inhibitory action (%)
# Experimental: The effect of the compounds on the fusion of osteoclasts was examined using purified prefusion osteoclasts (pOC, mononuclear and binuclear osteoclasts). Co-cultures of bone marrow cells (2×10^7 cells/dish) and newborn mice calvariae (1×10^6 cells/dish) were maintained in 100-mm-diameter dishes for 4 days with osteoclast differontiarion factor. Cultures were washed twice with PBS and treated with 0.1% collagenase/dispase at 37° C. for 20 minutes. Released cells, mostly osteoblasts, were removed with a pipet and the plates were washed three times with PBS. The remaining cells were incubated with 30 uM echistatin in α-MEM containing 1% BSA for 20 min at 37° C. These cells were collected, pelleted, and washed once with α-MEM containing 10% FBS. The cells released by this treatment were the subject of the fusion assay. More than 90% of the cells in the pOCs preparation used in the present study were positive for TRAP.
# pOCs (15,000 cells/well) were plated on 96 well culture plates with or without various compounds. After culture for 18 hours, the cells were fixed and stained for TRAP.
# [2] = test system: osteoclast differentiation; assay: Osteoclast differentiation, co-culture, TRAP(+)MNCs (Example 5); format: cell-based, mice; conditions: Mus musculus, Osteoclast, 144 h, day 6, read-out: % inhibitory action
# Experimental: To investigate the effect of compounds on osteoclast differentiation, co-culture between bone marrow cells (2.5×10^5 cells/cm^2) and calvaria-derived osteoblastic cells (4×10^4 cells/cm^2) was conducted in the presence of 1.25(OH)2D3(10^−8 M) and dexamethasone (10^−7 M) with α-MEM containing 10% FBS (referred as “osteoclastic medium”). Bone marrow cells were isolated from the femora of 6-week-old ddY mice and primary osteoblastic cells were isolated from the calvariae of newborn ICR mice by sequential digestion with 0.2% collagenase. The medium was changed every two days with fresh osteoclastic medium. An index of osteoclast formation was determined by counting TRAP-positive multinucleated osteoclasts (TRAP(+)MNCs). On day 6, the cells were fixed with 10% formaldehyde and stained for TRAP. The number of TRAP(+) MNCs containing more than 6-7 nuclei was counted under a microscope (ZEISS Axiovert 25, Switzerland). The results are shown as the relative inhibitory activity (% inhibition) compared to the control group.
# [3] = test system: Primary osteoblastic cells; assay: ALP activity in primary osteoblastic cells (Example 5); format: cell-based, ICR mice; conditions: 3 days
# Experimental: Primary osteoblastic cells isolated from the calvariae of newborn ICR mice were grown to confluence in α-MEM containing 10% FBS. These cells were plated at a density of 1×10^5/ml in tissue culture dishes. After 24 h, cells were changed with a differentiation medium containing ascorbic acid (50 ug/ml) and β-glycerophosphate (10 mM) with or without the compounds and further cultured for 3 days. Cells were washed twice with PBS and harvested. For the measurement of ALP activity and total protein content, cells were extracted into 0.1% Triton X-100 in PBS containing 1 mM MgCl2 and centrifuged at 1.000×g for 5 minutes. Enzyme activity was determined in supernatants by colorimetric procedure using p-nitrophenyl phosphate (PNP) as a substrate at a wavelength of 405 nm and the protein content was determined by a Bio-Rad protein assay kit. The ALP unit was expressed as nmol PNP/ug protein/min.
# LTB4 receptor = LTB4 receptor (Homo sapiens, UniProt Q15722); design: endogenous in cells; host or cells: human neutrophils (PMN) purified from fresh blood; conditions: cited from earlier work
# osteoclast fusion [4] = assay: Fusion assay of prefusion osteoclasts (Example 2); format: cell-based, mice; conditions: Mus musculus, Osteoclast, 24 hrs, read-out: Inhibitory action (%)
# Text: This assay is designed to evaluate the influences of each test substance in terms of osteoclast fusion during the differentiation process in which immature prefusion osteoclasts (pOC; osteoclast structure with one more nuclei) were transformed into mature multinucleated osteoclast (OCL) via cell to cell fusion (Gregg Wesolowski et al. Experimental Cell Research 219,679-686, 1995).
# The prefusion osteoclast can be obtained via co-culture of both bone marrow cells and osteoblast, as prepared from Example 1. The mixture of both osteoblast (about 5×10^5 cells/plate) and bone marrow cells (about 1×10^7 cells/plate) were co-cultured in a 100 mm culture dish. Some differentiation factors, such as dexamethasone (10^−6M) and vitamin D3 (10^−9M), were added to the medium from the first day of culture. The medium was changed with a fresh medium containing differentiation factors every 2 days.
# Since a great number of the prefusion osteoclasts having one or more nuclei in fusion process were formed during 4-day co-culture, the cells were separated and co-cultivation after 4 days. The medium was removed from the cells and with the addition of 0.2% collagenase solution (4 mL), the cells were incubated at 37° C. for 20 mins to separate the attachment cells. Since the majority of separated cells were osteoblasts, all osteoblasts were washed with PBS solution two or three times for their complete removal.
# After the remaining prefusion osteoclasts were separated via reaction for 20 mins with the addition of echistatin containing 10% BSA, the cells were harvested by centrifuge.
# The test substances diluted at each concentration were diluted at the desired concentration in α-MEM medium (addition of 10% FBS) to load them into a 96-well microplate in a dose of 100 uL per well. The osteoclastic monocytes, so separated from the preceding No. 1, were plated on a 96-well microplate in a dose of 5×10^3 cell/100 uL per well and cultured at 37° C. for 24 hrs, thus successfully resulting in the osteoclast fusion. In the case of specimen-free and positive controls, experiments were performed in the same manner as above.
# The medium was removed from the cells and then the cells were washed once with PBS and fixed to a PBS solution containing 10% formalin for about 5 mins. The cells were again fixed to both ethanol and acetone (1/1) in a mixing solution for about 5 mins and dried off. The cells were further treated by TRAP staining solution for 15 mins and washed with water to observe the cells under the microscope. The TRAP-positive osteoclast counts, which were differentiated from monocyte to multinucleated cells (osteoclast having more than 10 nuclei) via fusion process, were measured.
# [5] = test system: osteoclast activity (resorption pits); assay: Bone resorption pit formation assay on dentine slice (Example 5); format: cell-based, mice; conditions: Mus musculus, Osteoclast, dentine slice, 24 h, read-out: Inhibitory activity (%)
# Experimental: Method for evaluating the effects of the compounds on osteoclast activity: Multinucleated osteoclasts were developed on collagen gel plates by co-culture system as described. On day 6-8 of the co-culture, multinucleated OCLs were detached from plates by 0.2% collagenase treatment (“crude OCLs”). Crude OCLs suspended in α-MEM containing 10% FBS were placed on a dentine slice (4 mm diameter) in a 96-well culture plate. […] At the end of the incubation, cells were removed by 1 M NH4OH treatment and resorption pits formed (in the slices stained with Mayer's hematoxylin). Resorption pits were enumerated with an image analyzer and compared to the control group.
# Chain of LTB4 receptor (Q15722 whole entry, the tested form may be a part): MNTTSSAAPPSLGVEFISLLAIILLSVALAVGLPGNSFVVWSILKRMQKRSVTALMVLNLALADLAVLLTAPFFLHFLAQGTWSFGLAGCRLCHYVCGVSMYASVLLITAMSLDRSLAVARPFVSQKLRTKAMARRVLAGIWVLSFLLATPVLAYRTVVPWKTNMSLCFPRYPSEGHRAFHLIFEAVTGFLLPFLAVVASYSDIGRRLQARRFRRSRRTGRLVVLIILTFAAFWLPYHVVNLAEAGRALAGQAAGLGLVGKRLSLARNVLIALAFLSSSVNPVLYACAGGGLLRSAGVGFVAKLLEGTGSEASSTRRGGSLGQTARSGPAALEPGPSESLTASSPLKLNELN
SMILES,inhibition at 0.08 µM (osteoclast fusion [1]) [%],inhibition at 0.4 µM (osteoclast fusion [1]) [%],inhibition at 2 µM (osteoclast fusion [1]) [%],inhibition at 10 µM (osteoclast fusion [1]) [%],inhibition at 0.01 µM [2] [%],inhibition at 0.1 µM [2] [%],inhibition at 1 µM [2] [%],ALP activity (% of control) ([3]; 0.01 uM),ALP activity (Unit) ([3]; 0.01 uM) [nmol PNP/ug protein/min],ALP activity (% of control) ([3]; 0.1 uM),ALP activity (Unit) ([3]; 0.1 uM) [nmol PNP/ug protein/min],Inhibition (%) of LTB4 receptor binding (LTB4 receptor; 1 uM) [%],inhibition at 0.08 µM (osteoclast fusion [4]) [%],inhibition at 0.4 µM (osteoclast fusion [4]) [%],inhibition at 2 µM (osteoclast fusion [4]) [%],inhibition at 10 µM (osteoclast fusion [4]) [%],inhibition at 0.01 µM [5] [%],inhibition at 0.1 µM [5] [%],inhibition at 1 µM [5] [%],Inhibition (%) of LTB4 receptor binding (LTB4 receptor; 100 nM) [%]
"COc1cc(C(=O)N(C(C)C)C(C)C)ccc1OCCCCOc1ccc2c(N)noc2c1 [HS1141, N,N-diisopropyl-4-[4-(3-aminobenzo[d]isooxazole-6-yloxy)butoxy]-3-methoxybenzamide]",2.1,12.3,15.7,36.3,11.4,36.4,72.9,117.3 % of control,19.9,120.9 % of control,21.0,100,2.1,12.3,15.7,36.3,8.2,22.7,52.7,–
"Cc1nc(-c2ccc(OCCCCOc3ccc(C(=N)NO)cc3)cc2)c(C(C)C)s1 [DW1349, N— hydroxy-4-{4-[4-(5-isopropyl-2-methyl-1,3-thiazol-4-yl)phenoxy]butoxy}-benzamidine]",0,2.3,4.5,18,31.9,46.8,85.5,113.2 % of control,19.0,101.6 % of control,17.2,87.2,0,2.3,4.5,18,19.3,36.1,64.7,32.7
